Measurements: patent US10203322B2, “Method for identifying subjects with increased risk of ST-segment elevation myocardial infarction (STEMI) and identifying subjects likely to respond to particular treatments” (Vanderbilt University, priority 2017, dated 2019)

What was measured:
[1] = system: platelets from an individual with the low threshold phenotype; conditions: platelets of low threshold (potentiating) phenotype treated with the EP3 antagonist; ref [6], FIG. 2; cited from earlier work
[2] = system: platelets (platelet-rich plasma); test: Platelet phenotyping: platelet aggregation in platelet-rich plasma by light transmission aggregometry, U46,619 with or without PGE2; format: cell-based, human; conditions: PGE2 100 nmol/L preincubated with PRP, sub-maximal U46,619, aggregation recorded 6 min, n=86 (FIG. 1)
Experimental: Measurements of platelet aggregation in PRP were made using light transmission aggregometry using a Chrono-Log lumi-aggregometer (Model 460VS). The aggregometer was calibrated for each sample to read 0-10% light transmission for PRP and 90-100% light transmission for PPP. Aliquots of PRP were placed in siliconized glass cuvettes containing Teflon-coated stir bars and incubated for 2 minutes at 37° C. PRP was preincubated with or without 100 nM PGE2 for 10-20 s before adding U46,619 at various concentrations. Samples were stirred at 800 rpm throughout a 6 minute aggregation run. Experiments were completed within 2 hours of phlebotomy. Percentage aggregation was recorded with Aggrolink software (Chrono-Log) and exported to GraphPad Prism for analysis. For each subject, multiple doses of U46,619 agonist were used to construct a dose response curve according to methods described previously; each U46,619 dose was tested with and without PGE2.
In order to describe the phenotypic observation in a quantitative rather than just qualitative format a continuous variable was constructed as follows: for each dose of U46,619, the aggregation value obtained at the end of the 6 min run in the presence of PGE2 was subtracted from the value obtained without PGE2. The largest difference was reported as the maximum PGE2 effect (maximum difference). […]

SMILES | shift of PGE2 response phenotype [1] | individuals in whom PGE2 decreases the threshold of platelet activation by the thromboxane agonist U46,619 (inhibitory phenotype) [2] | individuals in whom PGE2 increases the threshold of platelet activation by the thromboxane agonist U46,619 (potentiating phenotype) [2]
Cc1cn(Cc2ccc(Cl)cc2Cl)c2c(/C=C/C(=O)NS(=O)(=O)c3cc(Cl)c(Cl)s3)cc(F)cc12 [DG-041] | the phenotype shifts to high threshold | – | –
CCCCC[C@H](O)/C=C/[C@H]1[C@H](O)CC(=O)[C@@H]1C/C=C\CCCC(=O)O [PGE2, Prostaglandin E2] | – | 56 % of individuals | 44 % of individuals
